For 20 molecules, IC50 results are on record in ChEMBL document CHEMBL3392926, “Antiprotozoal Activity Profiling of Approved Drugs: A Starting Point toward Drug Repositioning”.

Experiment [1] in a line: cells. Type of experiment: functional, cell-based. The settings on record: Rattus norvegicus, L6, 72 h.
Experiment [2] relates to Leishmania donovani. In words: microbe, parasite or virus in culture. The experiment is classed as functional, organism-based, MHOM/ET/67/L82.
Experiment [3] deals with Leishmania donovani. The experiment in a line: microbe, parasite or virus in culture. Type of experiment: functional, organism-based, MHOM/ET/67/L82. The source holds these as a separate data set.
A short description of experiment [4]: cells. Type of experiment: functional, cell-based. As to conditions: Mus musculus, NMRI, BalbC or CD1 mice, Macrophage, 96 h.
Experiment [5] deals with Plasmodium falciparum. The experiment in a line: microbe, parasite or virus in culture. Type of experiment: functional, organism-based, K1.
Experiment [6] deals with Trypanosoma cruzi. In words: microbe, parasite or virus in culture. The experiment is classed as functional, organism-based, Tulahuen C4 (LacZ).
In experiment [7] the test system is Trypanosoma brucei rhodesiense. In words: microbe, parasite or virus in culture. Type of experiment: functional, organism-based, STIB 900.
Setting [8] is: Leishmania donovani, MHOM/ET/67/L82, 72 h.
Where [9] appears, read: Leishmania donovani, MHOM/ET/67/L82, 96 h.
The mark [10] stands for this setting: Plasmodium falciparum, K1, 72 h.
Where [11] appears, read: Trypanosoma cruzi, Tulahuen C4 (LacZ), 96 h.
Where [12] appears, read: Trypanosoma brucei, STIB 900, 72 h.

Values joined by “and” are separate entries in the source; they are usually repeats but may differ in a detail not shown here. Equal entries are not always repeated.

Consider `CN(C)CCCN1c2ccccc2Sc2ccc(Cl)cc21` [CHLORPROMAZINE], for which the IC50 in experiment [1] was 12.3 µM; in experiment [2] (setting [8]), 48.5 µM; in experiment [3] (setting [9]), more than 9.41 µM; in experiment [4], 31.4 µM; in experiment [5] (setting [10]), 3.03 µM; in experiment [6] (setting [11]) it was 17.2 µM. For the same molecule, in experiment [7] (setting [12]), half-maximal inhibition (IC50) required 1.25 µM.
Turning to `C[C@H]1c2cccc(O)c2C(O)=C2C(=O)[C@]3(O)C(=O)/C(=C(/N)O)C(=O)[C@@H](N(C)C)[C@@H]3[C@@H](O)[C@@H]21`, the IC50 in experiment [1] was 14.5 µM; in experiment [2] (setting [8]), 24.1 µM; in experiment [3] (setting [9]) it was more than 22.5 µM; in experiment [4], 67.5 µM; in experiment [5] (setting [10]), 4.48 µM; in experiment [6] (setting [11]) it was 39.1 µM. In experiment [7] (setting [12]), this molecule yielded an IC50 of 63.7 µM.
As for `CCC(C)n1ncn(-c2ccc(N3CCN(c4ccc(OCC5COC(Cn6cncn6)(c6ccc(Cl)cc6Cl)O5)cc4)CC3)cc2)c1=O` (stereo unspecified) [ITRACONAZOLE], the IC50 was 1.11 µM in experiment [1]; 2.42 µM in experiment [2] (setting [8]); more than 1.42 µM in experiment [3] (setting [9]); 4.25 µM in experiment [4]; 1.37 µM in experiment [5] (setting [10]); 0.004 µM in experiment [6] (setting [11]). In experiment [7] (setting [12]), this molecule registered an IC50 of 8.53 µM.
With `COc1ccc2[nH]c([S+]([O-])Cc3ncc(C)c(OC)c3C)nc2c1` (stereo unspecified) [OMEPRAZOLE], the IC50 in experiment [1] is 126 µM; in experiment [2] (setting [8]) it was 90.9 µM; in experiment [3] (setting [9]), more than 86.9 µM; in experiment [4], more than 86.9 µM; in experiment [5] (setting [10]), 13.2 µM; in experiment [6] (setting [11]), 68.3 µM. Inhibition in experiment [7] (setting [12]) was half-maximal at 51.8 µM (IC50).
Consider `CN1CCN(CCCN2c3ccccc3Sc3ccc(C(F)(F)F)cc32)CC1` [TRIFLUOPERAZINE], for which the IC50 in experiment [1] was 11 µM; in experiment [2] (setting [8]) it was 52.9 µM; in experiment [3] (setting [9]), more than 7.36 µM; in experiment [4], 24.5 µM; in experiment [5] (setting [10]), 1.48 µM; in experiment [6] (setting [11]), 10.1 µM. In experiment [7] (setting [12]), this molecule displayed an IC50 of 1.23 µM.
With `C#C[C@]1(O)CC[C@H]2[C@@H]3CCC4=Cc5oncc5C[C@]4(C)[C@H]3CC[C@@]21C` [DANAZOL], the IC50 is 32 µM in experiment [1]; 10.2 µM in experiment [2] (setting [8]); more than 29.6 µM in experiment [3] (setting [9]); more than 29.6 µM in experiment [4]; 14.1 µM in experiment [5] (setting [10]); 6.25 µM in experiment [6] (setting [11]). The molecule further gave an IC50 in experiment [7] (setting [12]) of 45.9 µM.
As for `CN(C/C=C/C#CC(C)(C)C)Cc1cccc2ccccc12` [TERBINAFINE], the IC50 in experiment [1] was 47 µM; in experiment [2] (setting [8]), 23 µM; in experiment [3] (setting [9]), 69.5 µM; in experiment [4] it was more than 91.5 µM; in experiment [5] (setting [10]), 7.72 µM; in experiment [6] (setting [11]), 40.9 µM. In experiment [7] (setting [12]), this molecule registered an IC50 of 95.2 µM.
With `NC(=O)c1cccnc1` [NIACINAMIDE], the IC50 in experiment [1] is more than 737 µM; in experiment [2] (setting [8]) it was more than 737 µM; in experiment [3] (setting [9]), more than 246 µM; in experiment [4] it was more than 246 µM; in experiment [5] (setting [10]) it was more than 40.9 µM; in experiment [6] (setting [11]) it was more than 737 µM. The IC50 in experiment [7] (setting [12]) is more than 737 µM.
Take `CC(C)(C)NC(=O)[C@@H]1CC2CCCCC2CN1C[C@@H](O)[C@H](Cc1ccccc1)NC(=O)[C@H](CC(N)=O)NC(=O)c1ccc2ccccc2n1` (stereo partly specified): the IC50 is 18.2 µM in experiment [1]; 77.4 µM in experiment [2] (setting [8]); more than 44.7 µM in experiment [3] (setting [9]); more than 44.7 µM in experiment [4]; 11.9 µM in experiment [5] (setting [10]); 17.1 µM in experiment [6] (setting [11]). In addition, in experiment [7] (setting [12]), the IC50 is 12.3 µM.
As to `COc1ccc(Cl)cc1C(=O)NCCc1ccc(S(=O)(=O)NC(=O)NC2CCCCC2)cc1` [GLYBURIDE], the IC50 in experiment [1] is 116 µM; in experiment [2] (setting [8]), 9.8 µM; in experiment [3] (setting [9]), more than 60.7 µM; in experiment [4], more than 60.7 µM; in experiment [5] (setting [10]), 38.3 µM; in experiment [6] (setting [11]), 93.9 µM. Besides, half-maximal inhibition in experiment [7] (setting [12]) (IC50) required 87.7 µM.
Turning to `NNC(=O)c1ccncc1` [ISONIAZID], the IC50 is more than 656 µM in experiment [1]; more than 729 µM in experiment [2]; more than 656 µM in experiment [2] (setting [8]); more than 219 µM in experiment [3] (setting [9]); more than 219 µM in experiment [4]; > 36.5 µM and 246 µM in experiment [5]. The IC50 in experiment [6] (setting [11]) was more than 656 µM; in experiment [7], more than 729 µM; in experiment [7] (setting [12]), more than 656 µM.
As for `CC(=O)[C@H]1CC[C@@H]2[C@@H]3CC[C@@H]4C[C@](C)(O)CC[C@]4(C)[C@H]3CC[C@@]12C`, the IC50 was 23.5 µM in experiment [1]; 42.5 µM in experiment [2] (setting [8]); more than 30.1 µM in experiment [3] (setting [9]); more than 90.2 µM in experiment [4]; more than 15 µM in experiment [5] (setting [10]); 65 µM in experiment [6] (setting [11]). This molecule gave an IC50 in experiment [7] (setting [12]) of 5.47 µM.
As to `CNCCC=C1c2ccccc2CCc2ccccc21` [NORTRIPTYLINE], the half-maximal inhibitory concentration (IC50) in experiment [1] is 27.9 µM; in experiment [2] (setting [8]), more than 342 µM; in experiment [3] (setting [9]), more than 11.4 µM; in experiment [4] it was 38 µM; in experiment [5] (setting [10]) it was 0.58 µM; in experiment [6] (setting [11]) it was 22.9 µM. In experiment [7] (setting [12]), this molecule came in with an IC50 of 1.17 µM.
With `OCCN(CCO)c1nc(N2CCCCC2)c2nc(N(CCO)CCO)nc(N3CCCCC3)c2n1` [DIPYRIDAMOLE], the IC50 in experiment [1] was 38.6 µM; in experiment [2] (setting [8]), 62 µM; in experiment [3] (setting [9]) it was more than 59.5 µM; in experiment [4] it was more than 59.5 µM; in experiment [5] (setting [10]) it was 1.3 µM; in experiment [6] (setting [11]) it was 29.3 µM. For the same molecule, the IC50 in experiment [7] (setting [12]) came to 7.45 µM.
For the molecule `CN(C)CCCN1c2ccccc2Sc2ccc(C(F)(F)F)cc21` [TRIFLUPROMAZINE], the IC50 in experiment [1] is 18.5 µM; in experiment [2] (setting [8]), 79.8 µM; in experiment [3] (setting [9]), more than 8.51 µM; in experiment [4] it was 28.4 µM; in experiment [5] (setting [10]), 2.72 µM; in experiment [6] (setting [11]), 15 µM. For the same molecule, the IC50 in experiment [7] (setting [12]) was determined as 1.42 µM.
For the molecule `CCC[C@@]1(CCc2ccccc2)CC(O)=C([C@H](CC)c2cccc(NS(=O)(=O)c3ccc(C(F)(F)F)cn3)c2)C(=O)O1`, the IC50 in experiment [1] was 53.4 µM; in experiment [2] (setting [8]), 1.64 µM; in experiment [3] (setting [9]) it was more than 49.8 µM; in experiment [4], more than 49.8 µM; in experiment [5] (setting [10]), 44.6 µM; in experiment [6] (setting [11]), 28.2 µM. The molecule further yielded an IC50 in experiment [7] (setting [12]) of 26.4 µM.
On to `CC(C)c1nc(CN(C)C(=O)N[C@H](C(=O)N[C@@H](Cc2ccccc2)C[C@H](O)[C@H](Cc2ccccc2)NC(=O)OCc2cncs2)C(C)C)cs1` [RITONAVIR], for which the IC50 was 8.97 µM in experiment [2] (setting [8]); more than 41.6 µM in experiment [3] (setting [9]); 16.2 µM in experiment [5] (setting [10]); 20.7 µM in experiment [6] (setting [11]); 4.3 µM in experiment [7] (setting [12]).
As to `Nc1ccc(S(=O)(=O)Nc2ncccn2)cc1` [SULFADIAZINE], the IC50 in experiment [1] is 20.6 µM; in experiment [3] (setting [9]), more than 12 µM; in experiment [4], 40.1 µM; in experiment [5] (setting [10]), 1.44 µM; in experiment [6] (setting [11]) it was 24.9 µM; in experiment [7] (setting [12]), 18.4 µM.
Turning to AURANOFIN, the half-maximal inhibitory concentration (IC50) is 0.11 µM in experiment [2]; more than 1.47 µM in experiment [3]; 1.67 µM in experiment [5]; 2.27 µM in experiment [6]; 0.01 µM in experiment [7].
As for `Clc1ccc(C(OCCN2CCCCC2)c2ccccc2)cc1` (stereo unspecified) [CLOPERASTINE], the IC50 is 43.4 µM in experiment [1]; more than 30.3 µM in experiment [3] (setting [9]); 90.9 µM in experiment [4]; 0.87 µM in experiment [5] (setting [10]); 9.46 µM in experiment [6] (setting [11]); 4.91 µM in experiment [7] (setting [12]).

What is called IC50 is the concentration at which inhibition is half-maximal. Low values mean greater potency in that assay, high ones weaker potency in that assay.
